Test results published in patent publication US9562065B2, “Sucrose octasulfates of magnesium, preparation method thereof and pharmaceutical cosmetic uses of same” (PIERRE FABRE DERMO-COSMETIQUE, priority 2011, dated 2017).
Marks after values point to notes of the source that are not given here.

Assays:
Assay type in all cases: cell-based
[1] = system: CDSN; experiment: mRNA expression in normal human keratinocytes (Quantigene), CDSN; set-up: dose or concentration left out as unconfirmed; conditions: positive control, 72 hours, NHK, in relation to the negative control
Experimental: (§1) The effect of sucrose octasulfate of magnesium and sucrose octasulfate of potassium and sodium on regulation of molecular targets involved in keratinocyte differentiation processes was evaluated. To that end, normal human keratinocytes (NHK) were brought together with the various products to be tested and the expression of various RNA coding proteins involved in the establishment of protein structures of the cornified envelope, but also in the synthesis of lipids or the expression of antimicrobial peptides, was measured.
(§2) The keratinocyte cell line used is the primary human keratinocyte cell line or NHKs prepared from strips of skin from cosmetic surgery waste (breast reduction). […]
(§3) The products to be tested are incubated with keratinocytes for 72 hours. The cells are then recovered and an analysis of the expression of target genes involved in epidermal differentiation is carried out using Quantigene technology, used to quantify the expression of mRNA of interest.
(§4) The values obtained by Quantigene are normalized in relation to the geometric mean of 2 reference genes, POL2RA and HPRT. Relative quantity is calculated in relation to the control. Regulation of the expression of the gene of interest is taken into account from a RQ (relative quantity)≧1.9 (induction) or RQ[…] (inhibition). […]

[2] = system: UGCG; experiment: mRNA expression in normal human keratinocytes (Quantigene), UGCG; set-up: dose or concentration left out as unconfirmed; conditions: CaCl2, positive control, 72 hours, NHK, in relation to the negative control
Experimental: as §1, §2, §3, §4

[3] = system: DEFB103A; experiment: mRNA expression in normal human keratinocytes (Quantigene), DEFB103A; set-up: dose or concentration left out as unconfirmed; conditions: CaCl2, positive control, 72 hours, NHK, in relation to the negative control
Experimental: as §1, §2, §3, §4

[4] = system: RNASE7; experiment: mRNA expression in normal human keratinocytes (Quantigene), RNASE7; set-up: dose or concentration left out as unconfirmed; conditions: CaCl2, positive control, 72 hours, NHK, in relation to the negative control
Experimental: as §1, §2, §3, §4

[5] = system: HaCaT human keratinocytes cell line; experiment: Oris Cell Migration Assay, keratinocyte migration; conditions: for AVG IF (Intensity of Fluorescence, proportional to the quantity of cells having migrated) / % activity/control: 24 hours; for AVG IF (Intensity of Fluorescence, proportional to the quantity of cells having migrated): DMEM 0% FCS; for % activity/control: in relation to the 0% FCS control
Experimental: In order to evaluate the impact of sucrose octasulfate of magnesium on the cell migration of HaCaT keratinocyte cell lines, studies were carried out using the Oris Cell Migration Assay Kit (Platypus Technologies). This study was conducted in parallel with sucrose octasulfate of potassium and sucrose octasulfate of sodium for comparison.
The keratinocyte cell line used is the HaCaT human keratinocytes cell line, spontaneously immortalized. This line is frequently cited as a reference model in the literature.
The protocol used for the cell migration study is based on the use of a 96-well kit, Oris Cell Migration Assay (Platypus Technologies—TEBU), enabling the miniaturization and quantification of this cell process.
The principle of this test consists in studying cell migration toward the center of the well of the 96-well plate. It consists in placing a stopper in the wells, in order to create a detection zone 2 mm in diameter. Then the stoppers are removed once the cells are well adhered to the surrounding surface, thus allowing the cells to migrate toward the detection zone. Plates without stoppers and with active agents are incubated at 37° C. for 24 hours in DMEM 0% FCS. The quantity of cells located in the zone previously occupied by the stopper is then analyzed in order to evaluate cell migration. A mask is used to visualize and count only the cells located in this zone. For each condition, an average of 4 to 8 wells is prepared.
The products tested in this study are SOS-Mg obtained in example 1 at a concentration of 10 μM, SOS-K at 10 μM (sucrose octasulfate of potassium), SOS-Na at 10 μM (sucrose octasulfate of sodium) and EGF as positive control. A negative control is prepared in which no compound is added to the culture medium (control 0% FCS).
The results are quantified by means of the following formula:
[formula] • in IF (Intensity of Fluorescence, proportional to the quantity of cells having migrated). • in percentage of activity in relation to the 0% FCS control.

[6] = system: SPRR1B; experiment: mRNA expression in normal human keratinocytes (real-time PCR), SPRR1B; conditions: 30 μM, 72 hours, NHK
Experimental: (§5) The keratinocyte cell line used is the primary human keratinocyte cell line or NHKs prepared from strips of skin from cosmetic surgery waste (breast reduction). The cells are grown in low-magnesium (0.1 mM) KSFM (Invitrogen) supplemented with 25 μg/ml bovine pituitary extract (BPE) and 1.5 ng/ml […] (EGF).
as §3
(§6) A second study was carried out under the same conditions but by measuring the expression of a larger number of genes (64 targets involved in cell differentiation) by real-time PCR.
(§7) These inductions show the role of SOS-Mg in the induction of keratinocyte differentiation and thus of cicatrization (IVL, SPRR1A, SPRR1B and LOR), in moisturization (Padi1) as well as its antimicrobial properties (hBD2).

[7] = system: FLG; experiment: mRNA expression in normal human keratinocytes (real-time PCR), FLG; conditions: 30 μM, 72 hours, NHK
Experimental: as §5, §3, §6, §7

[8] = system: hBD2 (DEFB4); experiment: mRNA expression in normal human keratinocytes (real-time PCR), hBD2; conditions: 30 μM, 72 hours, NHK, FIG. 3
Experimental: FIG. 3 represents the relative quantity of hBD2 mRNA produced by keratinocytes treated for 72 hours with 30 μM sucrose octasulfate of magnesium (SOS-Mg), 30 μM sucrose octasulfate of sodium (SOS-Na) or 30 μM sucrose octasulfate of magnesium (SOS-Mg) in relation to the negative control.
as §5, §3, §6
(§8) These inductions show the role of SOS-Mg in the induction of keratinocyte differentiation and thus of cicatrization (IVL, SPRR1A, SPRR1B and LOR), in moisturization (Padi1) as well as its antimicrobial properties (hBD2). […]

[9] = system: SPRR1A; experiment: mRNA expression in normal human keratinocytes (real-time PCR), SPRR1A; conditions: 30 μM, 72 hours, NHK
Experimental: as §5, §3, §6, §7

[10] = system: LOR; experiment: mRNA expression in normal human keratinocytes (real-time PCR), loricrin; conditions: 30 μM, 72 hours, NHK, FIG. 1
Experimental: FIG. 1 represents the relative quantity of loricrin mRNA produced by keratinocytes treated for 72 hours with 30 μM sucrose octasulfate of magnesium (SOS-Mg), 30 μM sucrose octasulfate of sodium (SOS-Na) or 30 μM sucrose octasulfate of magnesium (SOS-Mg) in relation to the negative control.
as §5, §3, §6, §8

[11] = system: Padi1; experiment: mRNA expression in normal human keratinocytes (real-time PCR), Padi1; conditions: 30 μM, 72 hours, NHK, FIG. 2
Experimental: FIG. 2 represents the relative quantity of Padi1 mRNA produced by keratinocytes treated for 72 hours with 30 μM sucrose octasulfate of magnesium (SOS-Mg), 30 μM sucrose octasulfate of sodium (SOS-Na) or 30 μM sucrose octasulfate of magnesium (SOS-Mg) in relation to the negative control.
as §5, §3, §6, §8

[12] = system: IVL; experiment: mRNA expression in normal human keratinocytes (real-time PCR), IVL; conditions: 30 μM, 72 hours, NHK
Experimental: as §5, §3, §6, §7

Compound: [Ca+2].[Cl-].[Cl-] [CaCl2]
- Relative quantities (RQ) of mRNA expression, CDSN [1]: 1.3
- Relative quantities (RQ) of mRNA expression, UGCG [2]: 3.1
- Relative quantities (RQ) of mRNA expression, UGCG ([2]; listed as Calcium): induced
- Relative quantities (RQ) of mRNA expression, DEFB103A [3]: 18.7
- Relative quantities (RQ) of mRNA expression, DEFB103A ([3]; listed as Calcium): induced
- Relative quantities (RQ) of mRNA expression, RNASE7 [4]: 4.5
- Relative quantities (RQ) of mRNA expression, RNASE7 ([4]; listed as Calcium): induced

Compound: O=S(=O)([O-])OC[C@H]1O[C@@](COS(=O)(=O)[O-])(O[C@H]2O[C@H](COS(=O)(=O)[O-])[C@@H](OS(=O)(=O)[O-])[C@H](OS(=O)(=O)[O-])[C@H]2OS(=O)(=O)[O-])[C@@H](OS(=O)(=O)[O-])[C@@H]1OS(=O)(=O)[O-].[K+].[K+].[K+].[K+].[K+].[K+].[K+].[K+] [SOS-K, sucrose octasulfate of potassium]
- AVG IF (Intensity of Fluorescence, proportional to the quantity of cells having migrated) ([5]; 10 μM, HaCaT): 5001 ± 835
- % activity/control ([5]; 10 μM): 99%
- keratinocyte migration (result in words) ([5]; 10 μM, HaCaT): do not induce keratinocyte migration

Compound: O=S(=O)([O-])OC[C@H]1O[C@@](COS(=O)(=O)[O-])(O[C@H]2O[C@H](COS(=O)(=O)[O-])[C@@H](OS(=O)(=O)[O-])[C@H](OS(=O)(=O)[O-])[C@H]2OS(=O)(=O)[O-])[C@@H](OS(=O)(=O)[O-])[C@@H]1OS(=O)(=O)[O-].[Na+].[Na+].[Na+].[Na+].[Na+].[Na+].[Na+].[Na+] [SOS-Na, sucrose octasulfate of sodium]
- AVG IF (Intensity of Fluorescence, proportional to the quantity of cells having migrated) ([5]; 10 μM, HaCaT): 4988 ± 965
- % activity/control ([5]; 10 μM): 99%
- keratinocyte migration (result in words) ([5]; 10 μM, HaCaT): do not induce keratinocyte migration

Compound: EGF: epithelial growth factor (EGF), positive control of the migration test
- AVG IF (Intensity of Fluorescence, proportional to the quantity of cells having migrated) ([5]; EGF 33 ng, positive control, HaCaT): 16138 ± 1548
- % activity/control ([5]; EGF 33 ng, positive control): 320*** %
- keratinocyte migration (result in words) ([5]; EGF at 33 ng/ml, positive control, HaCaT): induced keratinocyte migration (and proliferation) in a very large and significant manner

Compound: sucrose octasulfate of magnesium [SOS-Mg]
- AVG IF (Intensity of Fluorescence, proportional to the quantity of cells having migrated) ([5]; 10 μM, HaCaT): 7084 ± 662
- % activity/control ([5]; 10 μM): 140* %
- keratinocyte migration (result in words) ([5]; 10 μM, HaCaT): induced keratinocyte migration in a statistically significant manner
- migration relative to that induced by SOS-Na and SOS-K ([5]; 10 μM, HaCaT): 1.4 times
- expression of SPRR1B mRNA [6]: induced
- expression of FLG mRNA [7]: induced
- expression of hBD2 (DEFB4) mRNA [8]: induced to a greater extent
- expression of SPRR1A mRNA [9]: induced
- expression of LOR (loricrin) mRNA [10]: induced to a greater extent
- expression of Padi1 mRNA [11]: induced to a greater extent
- expression of IVL mRNA [12]: induced
